Source: ChEMBL document CHEMBL1201862, “PubChem BioAssay data set” (2004)
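Five compound concentrations were applied to cells in 96-well plates for 48 hours; endpoints were derived by simple linear interpolation of the resulting dose-response curve. GI50 = concentration required for 50% inhibition of growth.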 Active and inactive are the calls of the source. Rule as the data show it: active = GI50 up to about 1.1 µM and inactive = higher.

Columns and labels:
Experiment in all cases: NCI-60 cell line screen, 48 h
A498 = system: A498
COLO 205 = system: COLO 205
HL-60 = system: HL-60
HOP-62 = system: HOP-62
K562 = system: K562
KM12 = system: KM12
MCF7 = system: MCF7
MDA-N = system: MDA-N
MOLT-4 = system: MOLT-4
Malme-3M = system: Malme-3M
OVCAR-3 = system: OVCAR-3
OVCAR-4 = system: OVCAR-4
OVCAR-5 = system: OVCAR-5
SK-MEL-28 = system: SK-MEL-28
SK-OV-3 = system: SK-OV-3
SN12C = system: SN12C
SNB-75 = system: SNB-75
U-251 = system: U-251
UO-31 = system: UO-31
T47D = system: T47D

| SMILES | GI50 (A498) | GI50 (COLO 205) | GI50 (HL-60) | GI50 (HOP-62) | GI50 (K562) | GI50 (KM12) | GI50 (MCF7) | GI50 (MDA-N) | GI50 (MOLT-4) | GI50 (Malme-3M) | GI50 (OVCAR-3) | GI50 (OVCAR-4) | GI50 (OVCAR-5) | GI50 (SK-MEL-28) | GI50 (SK-OV-3) | GI50 (SN12C) | GI50 (SNB-75) | GI50 (U-251) | GI50 (UO-31) | GI50 (T47D) |
| --- | --- | --- | --- | --- | --- | --- | --- | --- | --- | --- | --- | --- | --- | --- | --- | --- | --- | --- | --- | --- |
| O=C(c1ccccc1F)c1c(NCc2ccccc2)c(=O)c1=O | > 100 µM (inactive) | > 100 µM (inactive) | > 100 µM (inactive) | > 100 µM (inactive) | > 100 µM (inactive) | > 100 µM (inactive) | > 100 µM (inactive) | > 100 µM (inactive) | > 100 µM (inactive) | > 100 µM (inactive) | > 100 µM (inactive) | > 100 µM (inactive) | > 100 µM (inactive) | > 100 µM (inactive) | > 100 µM (inactive) | > 100 µM (inactive) | > 100 µM (inactive) | > 100 µM (inactive) | > 100 µM (inactive) |  |
| Cc1ccc(S(=O)(=O)NC(=O)C2=C3SCCN3C(=O)N(S(=O)(=O)c3ccc(C)cc3)C2c2ccccc2)cc1 (stereo not drawn) | > 100 µM (inactive) | 19.9 µM (inactive) | 43.2 µM (inactive) | 59.3 µM (inactive) | 36.7 µM (inactive) | 28.2 µM (inactive) | 29.9 µM (inactive) |  | 44.9 µM (inactive) | 40.6 µM (inactive) | 20 µM (inactive) | 58.6 µM (inactive) | 39.4 µM (inactive) | 50.2 µM (inactive) | 24.1 µM (inactive) | 49.9 µM (inactive) | 43.4 µM (inactive) | 39.3 µM (inactive) | > 100 µM (inactive) | > 100 µM (inactive) |
| COC(=O)c1cc(=O)nc2sc3cccc(C)c3n12 |  | 14.3 µM (inactive) | 19 µM (inactive) | > 100 µM (inactive) | 30.3 µM (inactive) | > 100 µM (inactive) | 52.5 µM (inactive) | 44 µM (inactive) | 28.6 µM (inactive) | 23.9 µM (inactive) | 23 µM (inactive) | > 100 µM (inactive) | 38 µM (inactive) | 62.8 µM (inactive) | > 100 µM (inactive) | 40.6 µM (inactive) | > 100 µM (inactive) | 22.2 µM (inactive) |  | 37.8 µM (inactive) |
| COc1ccc(-c2nc(-c3cnccn3)n(C3OC(CO)C(O)C(O)C3O)n2)cc1 (stereo not drawn) |  | > 100 µM (inactive) | > 100 µM (inactive) | > 100 µM (inactive) | > 100 µM (inactive) | > 100 µM (inactive) | > 100 µM (inactive) | > 100 µM (inactive) | > 100 µM (inactive) |  | > 100 µM (inactive) | > 100 µM (inactive) | > 100 µM (inactive) | > 100 µM (inactive) | > 100 µM (inactive) | > 100 µM (inactive) | > 100 µM (inactive) | > 100 µM (inactive) | > 100 µM (inactive) | > 100 µM (inactive) |
| Cc1cc(O)nc(NN2C(Cl)C(=O)C2c2ccc(O)cc2)n1 (stereo not drawn) | 9.75 µM (inactive) | 18.7 µM (inactive) | 2.79 µM (inactive) | 6.17 µM (inactive) | 2.37 µM (inactive) | 8.63 µM (inactive) | 4.03 µM (inactive) |  | 5.33 µM (inactive) | 14.4 µM (inactive) | 6.28 µM (inactive) | 6.95 µM (inactive) | 17.8 µM (inactive) | 11.1 µM (inactive) | 11.3 µM (inactive) | 11.2 µM (inactive) | 1.87 µM (inactive) | 5.4 µM (inactive) | 10.5 µM (inactive) | 12.7 µM (inactive) |
| O=C(CSCC(=O)N/N=C/c1cccc(OCc2ccccc2)c1)N/N=C/c1cccc(OCc2ccccc2)c1 | > 44.3 µM (inactive) |  | 21.5 µM (inactive) | > 100 µM (inactive) | 22.3 µM (inactive) | 33.3 µM (inactive) | 33.7 µM (inactive) |  | 15.5 µM (inactive) | 45.5 µM (inactive) | 39.5 µM (inactive) | > 76.4 µM (inactive) | 96.8 µM (inactive) | > 100 µM (inactive) | > 100 µM (inactive) | 35.5 µM (inactive) | > 100 µM (inactive) | 39.2 µM (inactive) | 46.9 µM (inactive) | 38.9 µM (inactive) |
| Cc1cc2c(cc1C)C(=O)C1(C2)Cc2c(ccc(C)c2C)C1=O (stereo not drawn) |  | > 100 µM (inactive) | > 100 µM (inactive) |  | > 100 µM (inactive) | > 100 µM (inactive) | > 100 µM (inactive) | > 100 µM (inactive) | > 100 µM (inactive) | 98.6 µM (inactive) | > 100 µM (inactive) | 75.5 µM (inactive) | > 100 µM (inactive) | > 100 µM (inactive) |  | > 100 µM (inactive) | 64.6 µM (inactive) | > 100 µM (inactive) | > 100 µM (inactive) | > 100 µM (inactive) |
| CC(=O)NNC1=NN(C(C)=O)C2(S1)C(=O)Nc1ccccc12 (stereo not drawn) |  |  | 97.5 µM (inactive) | > 100 µM (inactive) | > 100 µM (inactive) | > 100 µM (inactive) | > 100 µM (inactive) | > 100 µM (inactive) | > 100 µM (inactive) | > 100 µM (inactive) | > 100 µM (inactive) | > 100 µM (inactive) | > 100 µM (inactive) | > 100 µM (inactive) | > 100 µM (inactive) | > 100 µM (inactive) | 65.8 µM (inactive) | > 100 µM (inactive) | > 100 µM (inactive) | > 100 µM (inactive) |
| O=C(N/C(=C/c1ccc(Cl)cc1Cl)c1nc2ccccc2s1)c1ccccc1 |  | 18.3 µM (inactive) | 32.4 µM (inactive) | 10.8 µM (inactive) | 18.5 µM (inactive) | 13.2 µM (inactive) | 16.2 µM (inactive) |  | 14.3 µM (inactive) | 16.4 µM (inactive) | 7.78 µM (inactive) | 15.5 µM (inactive) | 17.3 µM (inactive) | 15.6 µM (inactive) | 24.3 µM (inactive) | 9.68 µM (inactive) | 17.9 µM (inactive) | 2.5 µM (inactive) | 13.6 µM (inactive) | 13.4 µM (inactive) |
| CC(C)(C)[Si](C)(C)OCC1OC(n2cnc3c(N)ncnc32)C(O)C1O (stereo not drawn) |  | > 100 µM (inactive) | > 100 µM (inactive) | > 100 µM (inactive) | 70.6 µM (inactive) | 37.3 µM (inactive) | > 100 µM (inactive) | > 100 µM (inactive) | 39.6 µM (inactive) | > 100 µM (inactive) | 76 µM (inactive) | > 100 µM (inactive) | > 100 µM (inactive) | > 100 µM (inactive) | 30.7 µM (inactive) | > 100 µM (inactive) | 59.8 µM (inactive) | > 100 µM (inactive) | 65.6 µM (inactive) | 24.4 µM (inactive) |
| CC(=O)c1ccc(N2CCN(C3=CC(=O)c4c(O)ccc(O)c4C3=O)CC2)cc1 | > 100 µM (inactive) | 35.5 µM (inactive) | 10.4 µM (inactive) | 29.9 µM (inactive) | 37.5 µM (inactive) | 51.8 µM (inactive) | 35.9 µM (inactive) |  | 5.38 µM (inactive) | 4.36 µM (inactive) | 39.9 µM (inactive) | > 100 µM (inactive) | > 100 µM (inactive) | > 100 µM (inactive) |  |  | 24.2 µM (inactive) | 16.2 µM (inactive) | 4.42 µM (inactive) | > 100 µM (inactive) |
| CC1=NN(c2ccccc2)C(=O)C1C(=O)C(=O)Nc1ccc(C)cc1C (stereo not drawn) | > 100 µM (inactive) | > 100 µM (inactive) | > 100 µM (inactive) | > 100 µM (inactive) | > 100 µM (inactive) | > 100 µM (inactive) | > 100 µM (inactive) |  | > 100 µM (inactive) | > 100 µM (inactive) | > 100 µM (inactive) | > 100 µM (inactive) | > 100 µM (inactive) | > 100 µM (inactive) | > 100 µM (inactive) | > 100 µM (inactive) | > 100 µM (inactive) | > 100 µM (inactive) | > 100 µM (inactive) | > 100 µM (inactive) |
| CC(NCc1c(O)ccc2c(-c3ccccc3)cc(=O)oc12)C(=O)O (stereo not drawn) |  | > 100 µM (inactive) | > 100 µM (inactive) | > 100 µM (inactive) | > 100 µM (inactive) | > 100 µM (inactive) | > 100 µM (inactive) | > 100 µM (inactive) | > 100 µM (inactive) | > 100 µM (inactive) | > 100 µM (inactive) | > 100 µM (inactive) | > 100 µM (inactive) | > 100 µM (inactive) | > 100 µM (inactive) | > 100 µM (inactive) | > 100 µM (inactive) | > 100 µM (inactive) | > 100 µM (inactive) | > 100 µM (inactive) |
| CNc1ncnc2c1nc(NC1CCCC1)n2C1OC(CO)C(O)C1O (stereo not drawn) | > 100 µM (inactive) | > 100 µM (inactive) |  | > 100 µM (inactive) |  | > 100 µM (inactive) | > 100 µM (inactive) | > 100 µM (inactive) | > 100 µM (inactive) | > 100 µM (inactive) | > 100 µM (inactive) | > 100 µM (inactive) | > 100 µM (inactive) | > 100 µM (inactive) | > 100 µM (inactive) | > 100 µM (inactive) |  | > 100 µM (inactive) | > 100 µM (inactive) | > 100 µM (inactive) |
| CC(=O)O[C@@]12CO[C@@H]1C[C@H](O)[C@@]1(C)C(=O)[C@H](O)C3=C(C)[C@@H](OC(=O)[C@H](O)[C@@H](NC(=O)OC(C)(C)C)c4ccccc4)C[C@@](O)([C@@H](OC(=O)c4ccccc4)[C@H]21)C3(C)C [DOCETAXEL] | < 0.0851 µM (active) | < 0.01 µM (active) | < 0.0631 µM (active) | < 0.01 µM (active) | < 0.01 µM (active) | < 0.01 µM (active) | 0.000409 µM (active) | 0.0001 µM (active) | < 0.0631 µM (active) | > 10 µM (inactive) | < 0.01 µM (active) | 21.8 µM (inactive) | < 0.01 µM (active) |  | 0.0132 µM (active) | < 0.01 µM (active) | < 0.01 µM (active) | < 0.01 µM (active) | 0.885 µM (active) |  |
